Holding throughout (format): biochemical
For one test, the target named is TYK2 (Homo sapiens (Human), UniProt P29597). As to the kind of experiment: JAK Caliper Enzyme Assay at 1 mM ATP, TYK2. In a few lines: (§1)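 Read-out is Caliper LabChip mobility-shift separation of phosphorylated from unphosphorylated fluorescent peptide after EDTA termination. Each JAK kinase domain (human, recombinant) runs at 1 mM ATP at room temperature, adjusted for 20–30% turnover. Inhibition is normalized to DMSO and positive-control wells and plotted against concentration.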
TYK2, sequence (P29597 897-1176): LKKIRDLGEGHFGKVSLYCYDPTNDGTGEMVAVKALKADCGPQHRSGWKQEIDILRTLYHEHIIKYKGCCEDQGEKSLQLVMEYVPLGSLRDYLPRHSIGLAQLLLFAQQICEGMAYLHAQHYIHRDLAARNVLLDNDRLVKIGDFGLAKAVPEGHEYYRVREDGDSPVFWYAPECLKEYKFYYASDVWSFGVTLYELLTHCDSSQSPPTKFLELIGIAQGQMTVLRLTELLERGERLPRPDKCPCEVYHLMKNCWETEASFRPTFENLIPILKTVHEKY

For a further test, the target named is JAK2 (Homo sapiens (Human), UniProt O60674). As to the kind of experiment: JAK Caliper Enzyme Assay at 1 mM ATP, JAK2. In a few lines: as §1
JAK2, sequence (O60674 849-1124): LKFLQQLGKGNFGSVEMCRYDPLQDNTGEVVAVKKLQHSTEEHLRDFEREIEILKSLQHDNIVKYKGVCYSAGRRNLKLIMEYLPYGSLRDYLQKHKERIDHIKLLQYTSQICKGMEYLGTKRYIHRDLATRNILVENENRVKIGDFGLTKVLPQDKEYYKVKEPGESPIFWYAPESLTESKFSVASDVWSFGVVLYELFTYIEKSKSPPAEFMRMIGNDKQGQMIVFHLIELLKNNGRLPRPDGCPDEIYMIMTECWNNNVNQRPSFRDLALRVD
For the next test, the target named is JAK1 (Homo sapiens (Human), UniProt P23458). Briefly: JAK Caliper Enzyme Assay at 1 mM ATP, JAK1. In a few lines:
(§2)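 Recombinant human kinase domains phosphorylate a fluorescent synthetic peptide at 1 mM ATP, room temperature, with enzyme and time tuned for 20-30% conversion; EDTA-stopped. Product/substrate separated by microfluidic mobility shift; percent effect versus DMSO and positive controls fitted to IC50 (nM).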

The next test concerns the target JAK3 (Homo sapiens (Human), UniProt P52333). Briefly: JAK Caliper Enzyme Assay at 1 mM ATP, JAK3. The method, boiled down:
as §2

JAK3, sequence (P52333 822-1111): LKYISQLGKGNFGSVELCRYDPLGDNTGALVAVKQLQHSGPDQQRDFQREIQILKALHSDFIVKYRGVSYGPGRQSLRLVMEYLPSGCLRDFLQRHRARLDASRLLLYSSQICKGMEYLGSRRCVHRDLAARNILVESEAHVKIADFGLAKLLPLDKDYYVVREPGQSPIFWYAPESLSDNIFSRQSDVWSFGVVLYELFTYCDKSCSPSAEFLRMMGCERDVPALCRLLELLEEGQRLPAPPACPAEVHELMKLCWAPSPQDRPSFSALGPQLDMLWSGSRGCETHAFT
JAK1, sequence (P23458 875-1153): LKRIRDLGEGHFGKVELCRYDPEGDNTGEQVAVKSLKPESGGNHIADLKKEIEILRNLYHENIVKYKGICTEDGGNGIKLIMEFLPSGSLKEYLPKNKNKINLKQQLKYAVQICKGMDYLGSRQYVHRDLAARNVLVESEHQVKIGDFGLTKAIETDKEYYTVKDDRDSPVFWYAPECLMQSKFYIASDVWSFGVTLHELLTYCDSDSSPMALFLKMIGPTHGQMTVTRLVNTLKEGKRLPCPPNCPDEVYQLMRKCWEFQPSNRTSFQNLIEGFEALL

With `Cc1ncc(-c2cc3ncccc3c(-c3ccn(C4(CC#N)CN(S(C)(=O)=O)C4)n3)n2)cc1O` [Example 222, [3-{3-[7-(5-hydroxy-6-methylpyridin-3-yl)-1,6-naphthyridin-5-yl]-1H-pyrazol-1-yl}-1-(methylsulfonyl)azetidin-3-yl]acetonitrile], the IC50 at TYK2 is 57 nM; at JAK2, 1300 nM; on JAK1 it was above 10000 nM; at JAK3 it was above 10000 nM.
For `N#CCC1(n2ccc(-c3nc(-c4ccc(O)c(C(N)=O)n4)cc4ncccc34)n2)CC(C#N)C1` (stereo not drawn) [Example 226, 6-(5-{1-[trans-3-cyano-1-(cyanomethyl)cyclobutyl]-1H-pyrazol-3-yl}-1,6-naphthyridin-7-yl)-3-hydroxypyridine-2-carboxamide], the concentration for half-maximal inhibition (IC50) is 112 nM on TYK2, 929 nM at JAK2, 3300 nM at JAK1 and above 10000 nM at JAK3.
Turning to `N#CC[C@]1(n2ccc(-c3nc(-c4ccc(O)c(C(N)=O)n4)cc4ncccc34)n2)C[C@H](C#N)C1` [Example 227, 6-(5-{1-[cis-3-cyano-1-(cyanomethyl)cyclobutyl]-1H-pyrazol-3-yl}-1,6-naphthyridin-7-yl)-3-hydroxypyridine-2-carboxamide], the concentration for half-maximal inhibition (IC50) on TYK2 was 1180 nM; at JAK2, 9300 nM; on JAK1, above 10000 nM; on JAK3 it was above 10000 nM.
As for `CC(=O)Nc1cc(-c2cc3ncccc3c(-c3ccn(C4(CC#N)CN(S(C)(=O)=O)C4)n3)n2)cnc1C` [Example 228, N-[5-(5-{1-[3-(cyanomethyl)-1-(methylsulfonyl)azetidin-3-yl]-1H-pyrazol-3-yl}-1,6-naphthyridin-7-yl)-2-methylpyridin-3-yl]acetamide], the concentration for half-maximal inhibition (IC50) on TYK2 is 704 nM; on JAK2, 6630 nM; on JAK1, 4350 nM; at JAK3 it was above 10000 nM.
In the case of `CS(=O)(=O)N1CC(CC#N)(n2ccc(-c3nc(-c4cnc(N)c(N)c4)cc4ncccc34)n2)C1` [Example 229, [3-{3-[7-(5,6-diaminopyridin-3-yl)-1,6-naphthyridin-5-yl]-1H-pyrazol-1-yl}-1-(methylsulfonyl)azetidin-3-yl]acetonitrile], the IC50 at TYK2 is 81 nM; at JAK2, 1000 nM; at JAK1 it was 2460 nM; at JAK3, above 10000 nM.
In the case of `CS(=O)(=O)N1CC(CC#N)(n2ccc(-c3nc(-c4ccc(N)nc4N)cc4ncccc34)n2)C1` [Example 230, [3-{3-[7-(2,6-diaminopyridin-3-yl)-1,6-naphthyridin-5-yl]-1H-pyrazol-1-yl}-1-(methylsulfonyl)azetidin-3-yl]acetonitrile], the IC50 at TYK2 is 33 nM; at JAK2, 451 nM; on JAK1, 1120 nM; at JAK3, above 10000 nM.
Take `CC(=O)Nc1cc(-c2cc3ncccc3c(-c3ccn(C4(CC#N)CN(S(C)(=O)=O)C4)n3)n2)cnc1NC(C)=O` [Example 231, N,N′-[5-(5-{1-[3-(cyanomethyl)-1-(methylsulfonyl)azetidin-3-yl]-1H-pyrazol-3-yl}-1,6-naphthyridin-7-yl)pyridine-2,3-diyl]diacetamide]: the IC50 was 948 nM at TYK2, 7900 nM at JAK2, 5760 nM at JAK1 and above 10000 nM on JAK3.
`N#CCC1(n2ccc(-c3nc(-c4cnc5c(c4)CCC5)cc4ncccc34)n2)CN(CC(F)(F)F)C1` [Example 232]: the IC50 at TYK2 was 1510 nM; on JAK2, 5820 nM; at JAK1, above 10000 nM; on JAK3, above 10000 nM.
Turning to `N#CCC1(n2ccc(-c3nc(-c4cncnc4)cc4ncccc34)n2)CN(CC(F)(F)F)C1` [Example 234, [3-{3-[7-(pyrimidin-5-yl)-1,6-naphthyridin-5-yl]-1H-pyrazol-1-yl}-1-(2,2,2-trifluoroethyl)azetidin-3-yl]acetonitrile], the IC50 at TYK2 was 2660 nM; on JAK2, above 10000 nM; on JAK1, above 10000 nM; at JAK3, above 10000 nM.
`CS(=O)(=O)N1CC(CC#N)(n2ccc(-c3nc(-c4cncnc4)cc4ncccc34)n2)C1` [Example 235, [1-(methylsulfonyl)-3-{3-[7-(pyrimidin-5-yl)-1,6-naphthyridin-5-yl]-1H-pyrazol-1-yl}azetidin-3-yl]acetonitrile]: the 50% inhibitory concentration (IC50) at TYK2 is 5510 nM; on JAK2, above 10000 nM; at JAK1 it was above 10000 nM; on JAK3 it was above 10000 nM.
Take `COc1ncc(-c2cc3ncccc3c(-c3ccn(C4(CC#N)CN(CC(F)(F)F)C4)n3)n2)cn1` [Example 236, [3-{3-[7-(2-methoxypyrimidin-5-yl)-1,6-naphthyridin-5-yl]-1H-pyrazol-1-yl}-1-(2,2,2-trifluoroethyl)azetidin-3-yl]acetonitrile]: the IC50 at TYK2 is 2360 nM; at JAK2, above 10000 nM; at JAK1, above 10000 nM; on JAK3, above 10000 nM.
Consider `COc1ncc(-c2cc3ncccc3c(-c3ccn(C4(CC#N)CN(S(C)(=O)=O)C4)n3)n2)cn1` [Example 237, [3-{3-[7-(2-methoxypyrimidin-5-yl)-1,6-naphthyridin-5-yl]-1H-pyrazol-1-yl}-1-(methylsulfonyl)azetidin-3-yl]acetonitrile], for which the half-inhibitory concentration (IC50) on TYK2 is 2040 nM; at JAK2, above 10000 nM; at JAK1 it was above 10000 nM; at JAK3 it was above 10000 nM.
As for `CS(=O)(=O)N1CC(CC#N)(n2ccc(-c3nc(-c4cnc(N)nc4)cc4ncccc34)n2)C1` [Example 238, [3-{3-[7-(2-aminopyrimidin-5-yl)-1,6-naphthyridin-5-yl]-1H-pyrazol-1-yl}-1-(methylsulfonyl)azetidin-3-yl]acetonitrile], the IC50 on TYK2 was 1920 nM; at JAK2, 8970 nM; on JAK1, above 10000 nM; on JAK3, above 10000 nM.
As for `N#CC[C@]1(n2ccc(-c3nc(-c4cnnc(N)c4)cc4ncccc34)n2)C[C@H](C#N)C1` [Example 239, trans-3-{3-[7-(6-aminopyridazin-4-yl)-1,6-naphthyridin-5-yl]-1H-pyrazol-1-yl}-3-(cyanomethyl)cyclobutanecarbonitrile], the half-inhibitory concentration (IC50) is 96 nM at TYK2, 1120 nM on JAK2, 3720 nM at JAK1 and above 10000 nM on JAK3.
In the case of `N#CC[C@]1(n2ccc(-c3nc(-c4cnnc(N)c4)cc4ncccc34)n2)C[C@@H](C#N)C1` [Example 240, cis-3-{3-[7-(6-aminopyridazin-4-yl)-1,6-naphthyridin-5-yl]-1H-pyrazol-1-yl}-3-(cyanomethyl)cyclobutanecarbonitrile], the concentration for half-maximal inhibition (IC50) on TYK2 was 48 nM; on JAK2 it was 448 nM; on JAK1 it was 1280 nM; on JAK3, above 10000 nM.
Turning to `N#CC[C@]1(n2ccc(-c3nc(-c4cc(N)cnn4)cc4ncccc34)n2)C[C@H](C#N)C1` [Example 241, trans-3-{3-[7-(5-aminopyridazin-3-yl)-1,6-naphthyridin-5-yl]-1H-pyrazol-1-yl}-3-(cyanomethyl)cyclobutanecarbonitrile], the IC50 at TYK2 was 3390 nM; at JAK2, above 10000 nM; at JAK1, above 10000 nM; at JAK3, above 10000 nM.
On to `N#CC[C@]1(n2ccc(-c3nc(-c4cc(N)cnn4)cc4ncccc34)n2)C[C@@H](C#N)C1` [Example 242, cis-3-{3-[7-(5-aminopyridazin-3-yl)-1,6-naphthyridin-5-yl]-1H-pyrazol-1-yl}-3-(cyanomethyl)cyclobutanecarbonitrile], for which the concentration for half-maximal inhibition (IC50) on TYK2 is 503 nM; on JAK2, 3770 nM; on JAK1, above 10000 nM; on JAK3, above 10000 nM.
Turning to `N#CC[C@]1(n2ccc(-c3nc(-c4ccnc(C(N)=O)n4)cc4ncccc34)n2)C[C@H](C#N)C1` [Example 243, 4-(5-{1-[trans-3-cyano-1-(cyanomethyl)cyclobutyl]-1H-pyrazol-3-yl}-1,6-naphthyridin-7-yl)pyrimidine-2-carboxamide], the concentration for half-maximal inhibition (IC50) on TYK2 is 48 nM; at JAK2, 726 nM; at JAK1, 2220 nM; on JAK3, above 10000 nM.
As for `N#CC[C@]1(n2ccc(-c3nc(-c4ccnc(C(N)=O)n4)cc4ncccc34)n2)C[C@H](C#N)C1` [Example 244, 4-(5-{1-[cis-3-cyano-1-(cyanomethyl)cyclobutyl]-1H-pyrazol-3-yl}-1,6-naphthyridin-7-yl)pyrimidine-2-carboxamide], the IC50 at TYK2 is 424 nM; on JAK2, above 10000 nM; at JAK1 it was above 10000 nM; at JAK3 it was above 10000 nM.
In the case of `CS(=O)(=O)N1CC(CC#N)(n2ccc(-c3nc(-c4ccc(=O)[nH]c4)cc4ncccc34)n2)C1` [Example 245, [1-(methylsulfonyl)-3-{3-[7-(6-oxo-1,6-dihydropyridin-3-yl)-1,6-naphthyridin-5-yl]-1H-pyrazol-1-yl}azetidin-3-yl]acetonitrile], the IC50 on TYK2 is 11 nM; on JAK2 it was 131 nM; at JAK1, 220 nM; on JAK3 it was above 10000 nM.
On to `N#CCC1(n2ccc(-c3nc(-c4ccc(=O)[nH]c4)cc4ncccc34)n2)CN(S(=O)(=O)C2CC2)C1` [Example 246, [1-(cyclopropylsulfonyl)-3-{3-[7-(6-oxo-1,6-dihydropyridin-3-yl)-1,6-naphthyridin-5-yl]-1H-pyrazol-1-yl}azetidin-3-yl]acetonitrile], for which the half-inhibitory concentration (IC50) is 32 nM at TYK2, 971 nM on JAK2, 554 nM at JAK1 and above 10000 nM on JAK3.

Usually IC50 stands for the midpoint of a concentration-inhibition curve.

The values above are taken from patent US11254668B2, “Pyrazolo[1,5-A]pyrazin-4-yl and related derivatives” (Pfizer Inc., priority 2017, dated 2022).
